According to patent US9539245B2, “Combination of immunotherapies with activators of Tie-2” (Aerpio Therapeutics, Inc., priority 2014, dated 2017):
“Also recorded” adds a separate entry of the source.

Key:
[1] = tested on: stroke after MCAO in mice; test: Middle cerebral artery occlusion (MCAO) stroke model in mice; assay type: in vivo, mouse
Protocol: Mice with endothelial-specific overexpression of hAng-2 (DT mice) underwent a permanent middle cerebral artery occlusion (MCAO). After a permanent MCAO was performed, animals were allowed to survive for 24 hours or 72 hours. Mice were anesthetized intraperitoneally (i.p.) with a combination of midazolam/medetomidine/fentanyl (5/0.5/0.05 mg/kg body mass). Anesthesia was terminated by i.p. injection of atipamezol/naloxone/flumazenil 2.5/1.2/0.5 mg/kg body weight). Brains were isolated and frozen down in Tissue TEK® O.C.T. and stored at −80° C. until use. WT mice also underwent the procedure as controls.
Larger infarcts were detected in DT mice that were subjected to MCAO as compared to WT mice that were subjected to MCAO after 24 hours and 72 hours (FIG. 9). Additionally, the IgG permeability in the stroke area was increased in DT mice (FIG. 10). Mice were treated with a Tie-2 activator shown below: […]

Tie-2 [2] = test: Western blot analysis of MBMECs pre-treated with hAng-2; assay type: cell-based, mouse; conditions: MBMECs pretreated with hAng-2 (16 h, 500 ng/ml), then Tie-2 activator 50 μM, 10 min
Protocol: (§1) For the Western blot experiments, samples were solubilized in urea/SDS buffer (2.3 M urea, 1.5% SDS, 50 mM Tris, 25 mM TCEP, and 0.01% BPB) for 1.5 h at 30° C. with shaking. Solubilized samples were loaded into Tris-HCl Bis-acrylamide gels (8-15%), electrophoresed, and subsequently transferred to nitrocellulose membranes at 4° C. overnight. Membranes were blocked for 1 hour at room temperature on a 1× Roti®-block (Roth™), incubated with primary antibodies overnight at 4° C., washed with PBS-T (0.5% Tween®-20), incubated with horseradish peroxidase-conjugated or fluorescent secondary antibodies (LI-COR™) for 1 h at room temperature. Membranes were imaged in Odyssey® (LI-COR™) imaging device and quantitation was performed on exported raw tiff files using Image Studio™ 2.1 software (LI-COR™).
Activation of Tie-2/Akt by the Tie-2 activator alone indicates a direct and specific effect of this drug. Phosphorylation of VE-Cadherin responsible for increased junctional permeability was reduced upon treatment with the Tie-2 activator (FIGS. 13 and 14). This observation explains in part the decreased permeability and stroke size in vivo.

Tie-2 [3] = test: Western blot and staining of the stroke hemisphere of treated mice; design: species or system mouse; conditions: in vivo
Protocol: as §1
Activation of Tie-2 upon treatment indicated by higher pTie-2 and pAkt levels in stroke hemispheres confirms in vivo activity (FIG. 15). […] FIG. 16 illustrates representative images (n=2 each group) of Tie-2 (red) and pTie-2 (green) staining of the stroke hemisphere.

[4] = tested on: primary mouse brain endothelial cells (MBMECs); test: Transendothelial electrical resistance (TEER) measurements of MBMEC monolayers; assay type: cell-based; conditions: recombinant human Ang-2 treatment; CD1 mice; FIG. 1 PANEL B
Protocol: To assess the role of Angiopoietin 1 (Ang-1), Angiopoietin 2 (Ang-2), and a Tie-2 activator in modulating permeability at the blood-brain barrier transendothelial electrical resistance (TEER) measurements were performed to obtain continuous barrier tightness index of primary mouse brain endothelial cells (MBMECs).
TEER measurements were performed as follows: isolated mouse brain microvascular endothelial cells (MBMECs) (100,000 cells/cm^2, 4-6 mice/prep) were seeded onto 1 μm pore 24-well PET transwell inserts (Greiner Bio-One) pre-coated with fibronectin (5 μg/cm^2, Sigma-Aldrich™). The inserts were transferred to a cellZscope® device placed in a humidified incubator (37° C., 5% CO2) and impedance measurements obtained continuously. Treatment was started upon reaching a plateau in TEER levels.
Isolation of mouse brain microvascular endothelial cells (MBMECs) was conducted as follows: Meninges-free brains were pooled and homogenized followed by digesting the pellet with 0.75% Collagenase II (Worthington™) in buffer A (1:1:1 volume ratio) for 1 hour with shaking at 37° C. For removing myelin, samples were resuspended in 25% BSA and centrifuged at 1500×g for 30 min at 4° C., followed by digesting the pellet with Collagenase/Dispase® (Roche™) and DNase I (Worthington™) in buffer A for 12 min at 37° C. […]

MBMEC monolayers = test: Transwell permeability assay of MBMEC monolayers with fluorescent tracers; assay type: cell-based, mouse (C57BL/6J); conditions: MBMECs from C57BL/6J mice, FIG. 2
Protocol: MBMECs were isolated from CD1 and C57BL/6J mice pooling 4-6 animals in each preparation and cultured on transwell inserts. Permeability of the MBMEC monolayers to 0.45 kD Lucifer-Yellow (LY; Sigma™), Texas Red® 3 kD dextran (Invitrogen™), TMR 20 kD dextran (Sigma™) and 70 kD FITC dextran (Sigma™) was determined as follows. Medium from the bottom chamber at each time point was read in a fluorescence plate reader (Tecan™) at the corresponding tracer excitation/emission and normalized to the apical chamber fluorescence with the ratio for the control condition set to 100%.
To rule out the possibility that Ang-2-mediated permeability was specific to the CD1 strain of mice used in the experiment, transwell assays applying fluorescent dextrans (3 kD, 20 kD, and 70 kD) and Lucifer-Yellow (LY 0.45 kD), using C57BL/6J mice were conducted.

Compound | stroke size (TTC staining) ([1]; WT mice after MCAO, compared to vehicle dH2O control, FIG. 11) | permeability to IgG in the stroke area ([1]; mice after MCAO, compared to control) | neurological behavior after stroke (behavior scoring test) ([1]; mice after stroke, FIG. 19) | Akt activation (pAkt levels) (Tie-2 [2]; FIGS. 13 and 14) | Tie-2 activation (pTie-2 levels) (Tie-2 [2]; FIGS. 13 and 14) | phosphorylation of VE-Cadherin (pVE-Cadherin) (Tie-2 [2]; n=3) | Akt activation (pAkt) in the stroke hemisphere (Tie-2 [3]; Western blot, n=7, FIG. 15) | pTie-2 in the stroke hemisphere (Tie-2 [3]; treated mice compared to controls, FIGS. 15 and 16) | transendothelial electrical resistance (TEER) of MBMECs [4] | permeability to tracers (fluorescent dextrans 3 kD, 20 kD, 70 kD and Lucifer-Yellow 0.45 kD) (MBMEC monolayers)
CCc1nc([C@H](Cc2ccc(NS(=O)(=O)O)cc2)NC(=O)[C@H](Cc2ccccc2)NC(=O)OC)cs1 [Tie-2 activator] | significantly decreased stroke sizes | Decreased permeability to IgG | improvement in neurological behavior | increased Tie-2 and Akt activation | increased levels of pTie-2 | decreased in tendency, but not significant | increased Akt activation | increased pTie-2 staining | – | –
rhAng-2: recombinant human angiopoietin 2, a Tie-2 ligand | – | – | – | – | – | – | – | – | decrease in TEER; also recorded: decrease in transendothelial electrical resistance | increased permeability to tracers of all sizes
